Experiment [1] has as its target BCL2 G101V (Homo sapiens, UniProt P10415, G101V). Kind of experiment: TR-FRET competitive binding assay, BCL2 G101V. The settings on record: BCL2 G101V; Ki determined from IC50; read-out: TR_FRET EKI_Bcl2 G101V. In a few lines: (§1)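 Ki derived from IC50 (11-point dilution, 520/495 nm emission ratio) for displacing a fluorescein-labelled PUMA peptide (2 or 20 nM). Target was 0.5 nM E. coli-expressed Halo-tagged BCL2 (1-207) or BCLXL (2-196), terbium-labelled on Halo. Incubation 2 h at 23°C in pH 7.5 Hepes with 150 mM NaCl and 5% DMSO.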
On the technique in general: Time-resolved FRET reads energy transfer from a long-lived donor to a nearby acceptor.

Experiment [2] relates to BCL2 G101V. Description: TR-FRET competitive binding assay, BCL2 G101V. The arrangement: species or system human. The settings on record: ratio Ki BCL2 G101V / Ki BCL2 WT. In outline: as §1
Another experiment concerns the target BCL2 D103Y (Homo sapiens, UniProt P10415, D103Y). Kind of experiment: TR-FRET competitive binding assay, BCL2 D103Y. As to conditions: Ki determined from IC50, read-out: TR_FRET EKI_Bcl2 D103Y. In outline:
as §1

Another experiment deals with KMS12PE. Description: In vitro cytotoxicity CellTiterGlo 72 h, KMS12PE. Format: cell-based. The settings on record: Homo sapiens, KMS-12-PE, read-out: C50 nM, KMS12PE. The method, then:
(§2) KMS-12-PE (ACC 606) were purchased from the Leibniz-Institute DSMZ (Braunschweig, Germany) and were grown at 37° C. in a humidified atmosphere with 5% CO2 in media recommended by the suppliers. Lentiviral particles containing Bcl-2 wild type (also named “Bcl2 WT”), Bcl-2 mutated on G101V (also named “Bcl2 G101V”), Bcl-2 mutated on D103Y (also named “Bcl2 D103Y”), Bcl-2 mutated on D103V (also named “Bcl2 D103V”), Bcl-2 mutated on D103E (also named “Bcl2 D103E”), Bcl-2 mutated on F104I (also named “Bcl2 F104I”), Bcl-2 mutated on F104L (also named “Bcl2 F104L”), Bcl-2 mutated on D111A (also named “Bcl2 D111A”), Bcl-2 mutated on A113G (also named “Bcl2 A113G”), Bcl-2 mutated on R129L (also named “Bcl2 R129L”), Bcl-2 mutated on V156D (also named “Bcl2 V156D”) were cloned into pcLV-CMV-DEST-IRES-TagRFP. Lentiviral particles (1×10^6) were mixed with Polybrene at 8 μg/ml and transduced by spinoculation for 1 h at 32° C. and incubated overnight. After 8 days, TagRFP positive-cells were sorted by FACS. BCL2 expression was monitored by immunoblotting using anti-Flag and anti-BCL2 antibodies. Cells were seeded into 96-wells plates and treated with 1:3.16 serial dilution of compounds (9 different concentrations). Cell viability was assessed using CellTiterGlo reagent following treatment for 72 h. Results were normalized to the viability of cells without compounds (control wells). The C50 values were calculated using nonlinear regression algorithms in XCell software.
On the technique in general: Cellular ATP, detected with luciferase, serves as a proxy for viable cell number.

In a further experiment the test system is KMS12PE Bcl2 WT. Kind of experiment: In vitro cytotoxicity CellTiterGlo 72 h, KMS12PE Bcl2 WT. Format: cell-based. As to conditions: Homo sapiens, KMS-12-PE, read-out: C50 nM, KMS12PE Bcl2 WT. The method, then: as §2
A further experiment has as its system KMS12PE Bcl2 D103Y. Description: In vitro cytotoxicity CellTiterGlo 72 h, KMS12PE Bcl2 D103Y. Type of experiment: cell-based. The settings on record: Homo sapiens, KMS-12-PE, read-out: C50 nM, KMS12PE Bcl2 D103Y. The method, then: as §2
In a further experiment the test system is KMS12PE Bcl2 D111A. Description: In vitro cytotoxicity CellTiterGlo 72 h, KMS12PE Bcl2 D111A. Type of experiment: cell-based. As to conditions: Homo sapiens, KMS-12-PE, read-out: C50 nM, KMS12PE Bcl2 D111A. The method, then: as §2
For a further experiment, the system named is KMS12PE Bcl2 A113G. Description: In vitro cytotoxicity CellTiterGlo 72 h, KMS12PE Bcl2 A113G. Type of experiment: cell-based. The settings on record: Homo sapiens, KMS-12-PE, read-out: C50 nM, KMS12PE Bcl2 A113G. The method, then: as §2
In another experiment the test system is KMS12PE Bcl2 D103V. Description: In vitro cytotoxicity CellTiterGlo 72 h, KMS12PE Bcl2 D103V. Format: cell-based. As to conditions: Homo sapiens, KMS-12-PE, read-out: C50 nM, KMS12PE Bcl2 D103V. Here is the method: as §2
A further experiment deals with KMS12PE Bcl2 F104L. Kind of experiment: In vitro cytotoxicity CellTiterGlo 72 h, KMS12PE Bcl2 F104L. As to conditions: Homo sapiens, KMS-12-PE, read-out: C50 nM, KMS12PE Bcl2 F104L. Format: cell-based. The method, then: as §2

For the compound `Cc1c(N(C(=O)c2cc(-c3cc4c(cc3C(=O)N3Cc5ccccc5C[C@H]3C)CN(C(=O)Cc3ccc(OCCN5CCSCC5)cc3)CC4)n(C)c2C)c2ccc(O)cc2)cc(C#N)n1C` [Example 55, N-(5-cyano-1,2-dimethyl-1H-pyrrol-3-yl)-N-(4-hydroxyphenyl)-1,2-dimethyl-5-{7-[(3R)-3-methyl-1,2,3,4-tetrahydroisoquinoline-2-carbonyl]-2-(2-{4-[2-(thiomorpholin-4-yl)ethoxy]phenyl}acetyl)-1,2,3,4-tetrahydroisoquinolin-6-yl}-1H-pyrrole-3-carboxamide], the Ki on BCL2 G101V [1] turned out to be 0.2 nM; on BCL2 D103Y it was 0.16 nM. For the same compound, in the experiment with BCL2 G101V [2], the “TR_FRET EKI G101V/WT selectivty ratio” value worked out at 2.4. The IC50 in the experiment on KMS12PE stood at 0.33 nM; in the experiment with KMS12PE Bcl2 WT, 2.61 nM; with KMS12PE Bcl2 D103Y, 2.5 nM; in the experiment on KMS12PE Bcl2 D111A it was 2.2 nM; in the experiment with KMS12PE Bcl2 A113G it was 5.53 nM; in the experiment with KMS12PE Bcl2 D103V, 4.48 nM. The IC50 in the experiment with KMS12PE Bcl2 F104L is 19.7 nM.
Regarding `Cc1c(N(C(=O)c2cc(-c3cc4c(cc3C(=O)N3Cc5ccccc5C[C@H]3CN3CCCCC3)CN(C(=O)Cc3ccc(OCCC5CCOCC5)cc3)CC4)n(C)c2C)c2ccc(O)cc2)cc(C#N)n1C` [Example 66, N-(5-cyano-1,2-dimethylpyrrol-3-yl)-N-(4-hydroxyphenyl)-1,2-dimethyl-5-[2-(2-{4-[2-(oxan-4-yl)ethoxy]phenyl}acetyl)-7-{[(3S)-3-(piperidin-1-ylmethyl)-3,4-dihydro-1H-isoquinolin-2-yl]carbonyl}-3,4-dihydro-1H-isoquinolin-6-yl]pyrrole-3-carboxamide], the Ki was 0.5 nM at BCL2 G101V [1] and 0.23 nM at BCL2 D103Y. Further, the “TR_FRET EKI G101V/WT selectivty ratio” value with BCL2 G101V [2] came to 5.7. Further, the IC50 with KMS12PE came to 0.2 nM; in the experiment with KMS12PE Bcl2 WT, 1.74 nM; in the experiment with KMS12PE Bcl2 D103Y, 1.3 nM; in the experiment on KMS12PE Bcl2 D111A it was 1.57 nM; in the experiment on KMS12PE Bcl2 A113G, 2.89 nM; in the experiment with KMS12PE Bcl2 D103V it was 2.22 nM. Besides, the IC50 with KMS12PE Bcl2 F104L was 24.1 nM.
For `Cc1c(C(=O)N(c2ccc(O)cc2)c2cc(C#N)n(C(F)F)c2C)cc(-c2cc3c(cc2C(=O)N2Cc4ccccc4C[C@H]2CN2CCCCC2)CN(C(=O)Cc2ccc(OCCN4CCOCC4)cc2)CC3)n1C` [Example 77], the Ki on BCL2 G101V [1] worked out at 0.3 nM; at BCL2 D103Y, 0.14 nM. Also, in the experiment with BCL2 G101V [2], the “TR_FRET EKI G101V/WT selectivty ratio” value is given as 5.1. The IC50 in the experiment with KMS12PE stood at 0.42 nM; with KMS12PE Bcl2 WT it was 4.75 nM; with KMS12PE Bcl2 D103Y, 3.31 nM; in the experiment on KMS12PE Bcl2 D111A, 3.64 nM; in the experiment on KMS12PE Bcl2 A113G, 7.86 nM; in the experiment on KMS12PE Bcl2 D103V, 6.28 nM. In addition, the IC50 in the experiment with KMS12PE Bcl2 F104L was determined as 31.9 nM.
On to `Cc1c(C(=O)N(c2ccc(O)cc2)c2cc(C#N)n(C(F)F)c2C)cc(-c2cc3c(cc2C(=O)N2Cc4ccccc4C[C@H]2CN2CCCCC2)CN(C(=O)Cc2ccc(OCCN4CCOCC4)cc2F)CC3)n1C` [Example 78, N-[5-cyano-1-(difluoromethyl)-2-methylpyrrol-3-yl]-5-[2-(2-{2-fluoro-4-[2-(morpholin-4-yl)ethoxy]phenyl}acetyl)-7-{[(3S)-3-(piperidin-1-ylmethyl)-3,4-dihydro-1H-isoquinolin-2-yl]carbonyl}-3,4-dihydro-1H-isoquinolin-6-yl]-N-(4-hydroxyphenyl)-1,2-dimethylpyrrole-3-carboxamide], for which the values for the Ki at BCL2 G101V [1] and on BCL2 D103Y were 0.4 nM and 0.14 nM, respectively. Moreover, the “TR_FRET EKI G101V/WT selectivty ratio” value in the experiment on BCL2 G101V [2] was determined as 6.8. Also, the IC50 with KMS12PE was 0.12 nM; in the experiment on KMS12PE Bcl2 WT, 1.41 nM; in the experiment on KMS12PE Bcl2 D103Y, 1 nM; with KMS12PE Bcl2 D111A, 1.14 nM; in the experiment with KMS12PE Bcl2 A113G, 2.11 nM; in the experiment with KMS12PE Bcl2 D103V it was 1.59 nM. Further, in the experiment with KMS12PE Bcl2 F104L, the IC50 is 8.71 nM.
As for `Cc1c(N(C(=O)c2cc(-c3cc4c(cc3C(=O)N3Cc5ccccc5C[C@H]3CN3CCC[C@H](C)C3)CN(C(=O)Cc3ccc(OCCN5CCOCC5)cc3F)CC4)n(C)c2C)c2ccc(O)cc2)cc(C#N)n1C` [Example 107], the Ki at BCL2 G101V [1] was determined as 0.4 nM; on BCL2 D103Y, 0.32 nM. Besides, in the experiment with BCL2 G101V [2], the “TR_FRET EKI G101V/WT selectivty ratio” value was 4.3. Moreover, the IC50 in the experiment with KMS12PE was 0.15 nM; with KMS12PE Bcl2 WT, 1.59 nM; with KMS12PE Bcl2 D103Y it was 0.97 nM; with KMS12PE Bcl2 D111A it was 1.36 nM; in the experiment with KMS12PE Bcl2 A113G, 2.82 nM; in the experiment with KMS12PE Bcl2 D103V, 1.94 nM. Also, in the experiment on KMS12PE Bcl2 F104L, the IC50 is 7.04 nM.

The values above are taken from US20250179047A1, “5-[7-(3,4-DIHYDRO-1H-ISOQUINOLINE-2-CARBONYL)-1,2,3,4 TETRAHYDROISOQUINOLIN-6-YL]-1H-PYRROLE-3-CARBOXAMIDE DERIVATIVES, PHARMACEUTICAL COMPOSITIONS CONTAINING THEM AND THEIR USES AS PRO-APOPTOTIC AGENTS” (LES LABORATOIRES SERVIER, priority 2022, published 2025).
